Measurements from patent EP1541559A1, “5-SUBSTITUTED ISOQUINOLINE DERIVATIVE” (Asahi Kasei Pharma Corporation, priority 2002, dated 2004).
Where a name gives a salt, the structure may show the parent alone. Read-outs that look alike come from different tables or passages of the source.

Legend:
[1] = test system: myosin regulatory light chain; test: Action on amount of phosphorylated myosin regulatory light chain in the cells (Test Example 1); assay type: cell-based, human; conditions: neutrophils of healthy volunteers, reaction with test compound at 25°C for 5 minutes, read-out: Inhibition of myosin regulatory light chain phosphorylation (IC50: µM)
Experimental: The neutrophils were washed with PBS(-) and resuspended in Hanks' Balanced Salt Solution (HBSS+, Gibco) to prepare a cell suspension (8 x 10^6/ml). The cell suspension was diluted to 5 x 10^6/ml, introduced into Eppendorf tubes in a volume of 0.4 ml each, then 0.1 ml each of solutions of a test compound at various concentrations were added to the suspension and allowed to react at 25°C for 5 minutes. After the reaction, 0.1 ml of trichloroacetic acid solution was added to each reaction, the reaction mixture was gently shaken and centrifuged at 12,000 rpm (4°C, 5 minutes), and the supernatant was removed. Subsequently, 3 μl of 1 M Tris solution was added to the residue, the mixture was further mixed with 50 μl of extraction buffer (8 M urea, 0.02% 2-mercaptoethanol, 0.002% bromophenol blue) and left stand at room temperature for 1 hour. Then, the reaction mixture was loaded on a spin column (0.45 μm, Millipore) to remove the insoluble solids and a sample buffer for SDS polyacrylamide gel electrophoresis (25 mM, Tris-HCl pH 6.8, 2.5% 2-mercaptoethanol, 2% sodium dodecylsulfate, 5% sucrose, 0.002% bromophenol blue as final concentrations) was added, and 10 μl of each sample was subjected to electrophoresis. […] J. Physiol., 274, […]-[…] (1998)), which specifically recognize the phosphorylated myosin regulatory light chain, and donkey anti-mouse IgG (Chemicon) conjugated with horseradish peroxidase (HRP-labeled). The band of the phosphorylated myosin regulatory light chain was detected on a film by using ECL Plus Kit (Amersham Pharmacia Biotech). This band was subjected to quantification using a densitometer. By using this value, the inhibitory ratio (%) for phosphorylation of the myosin regulatory light chain was calculated by using the following equation.

[2] = test system: Neutrophils; test: Neutrophil migration inhibitory action, Boyden Chamber, FMLP (Test Example 5); assay type: cell-based, human; conditions: FMLP (1 µM), migration at 37°C for 30 minutes, read-out: Neutrophil migration inhibition IC50
Experimental: Neutrophils were isolated from 50 to 100 ml of peripheral blood collected from healthy donors by the method described in Test Example 1 to obtain a cell suspension (8 x 10^6/ml). Subsequently, solutions of a test compound at various concentrations were introduced into wells of a 96-well plate in a volume of 125 µl per well, the cell suspension of an equivalent volume was added to it and the plate was preincubated at room temperature for 5 minutes. During the preincubation, FMLP (1 µM, Sigma) solution was added to the lower chamber to set Boyden Chamber, the preincubated cell suspension was added to the upper chamber in a volume of 200 µl per well, and the cells were allowed to migrate at 37°C under 5% carbon dioxide for 30 minutes. The filter after the migration was collected, and the non-migrated cells adhered to the surface that faced the upper chamber were carefully wiped off. Then, the migrated cells on the back surface were stained with DifQuick dye solution (International Reagents), washed with water and dried, and then absorbance was measured at 595 nm. The inhibition ratio against migration (%) of a test compound was calculated by using the following equation: Migration inhibition ratio (%) = (1 -Absorbance of the group with addition of test compound /Absorbance of the group without addition of test compound) x 100 [formula]

[3] = test system: thoracic aorta; test: Vasoconstriction inhibitory action on aorta rings constricted with phenylephrine (Test Example 2); parameters: species or system Rats (Wistar, 11-week old); conditions: for vasoconstriction inhibitory action: result in words, aorta constricted with phenylephrine (1 µM)
Description: Rats (Wistar, 11-week old) were bleeded to death and laparotomized to take out the thoracic aorta.

[4] = test system: Japanese white rabbit; test: Intraocular pressure reducing action (Test Example 4); assay type: in vivo; conditions: result in words
Experimental: A Japanese white rabbit having a body weight of about 2 kg was placed in a positioner and naturalized for one week before the experiment. An ophthalmologic local […] (Benoxil) was administered to the left eye, and then intraocular pressure was measured by using a tonometer (Classic 30, Solan). The initial value of the intraocular pressure was measured, then 50 μl of a test compound (1% aqueous solution) was dropped to the left eye, and after 2 hours, the intraocular pressure was measured. The intraocular pressure reducing action of the test compounds is shown in Table 7 mentioned below as ratios (%) of reduction of intraocular pressure based on the initial value of the intraocular pressure.

[5] = Homo sapiens, Neutrophil, 5 min
[6] = Homo sapiens, Neutrophil, 0.5 h

| IC50 [2, 6] | Molecule | IC50 [1, 5] | IC50 ([1]; hydrochloride) | also measured |
| --- | --- | --- | --- | --- |
|  | CCc1cncc2cccc(O[C@H]3CC[C@H](N)CC3)c12 [Example 138, Trans-4-[(4-ethyl-5-isoquinolyl)oxy]cyclohexylamine hydrochloride] | ≤ 40 µM | ≤ 20 µM |  |
| 10 to 40 µM | NC1CCCC(Nc2cccc3cnccc23)C1 (stereo not drawn) [Example 25, N-(5-Isoquinolyl)-1,3-cyclohexanediamine hydrochloride] | 20 to 40 µM |  |  |
| 10 to 40 µM | c1cc(NCC2CCNCC2)c2ccncc2c1 [Example 21, 4-(5-Isoquinolyl)aminomethylpiperidine hydrochloride] | ≤ 40 µM | ≤ 20 µM |  |
|  | c1cc(NCC2CCCNC2)c2ccncc2c1 (stereo not drawn) [Example 22, 3-(5-Isoquinolyl)aminomethylpiperidine hydrochloride] | ≤ 40 µM |  |  |
| ≤ 40 µM | c1cc(OC2CCNCC2)c2ccncc2c1 [Example 27, 4-[(5-Isoquinolyl)oxy]piperidine hydrochloride] | 1 to 20 µM |  |  |
| 1 to 10 µM | NCCCN(CCCCc1ccccc1)S(=O)(=O)c1cccc2cnccc12 [Example 4, N-[(5-Isoquinolyl)sulfonyl]-N-(4-phenylbutyl)-1,3-propylenediamine hydrochloride] | 30 µM |  |  |
| 10 to 40 µM | NCc1cccc(CNc2cccc3cnccc23)c1 [Example 26, N-(5-Isoquinolyl)-1,3-xylylenediamine hydrochloride] | 20 to 40 µM |  |  |
|  | Nc1nccc2c(NC3CCNCC3)cccc12 [Example 142, 4-(1-Amino-5-isoquinolyl)aminopiperidine hydrochloride] | ≤ 40 µM | ≤ 20 µM |  |
| ≤ 40 µM | Nc1cncc2cccc(O[C@H]3CC[C@H](N)CC3)c12 [Example 137, Trans-4-[(4-amino-5-isoquinolyl)oxy]cyclohexylamine hydrochloride] | ≤ 40 µM | ≤ 20 µM |  |
| 1 to 10 µM | Cl.NCCCN(CCS(=O)(=O)c1ccccc1)S(=O)(=O)c1cccc2c(O)nccc12 [Example 13, N-[(1-Hydroxy-5-isoquinolyl)sulfonyl]-N-[2-(phenylsulfonyl)ethyl]-1,3-propylenediamine hydrochloride] | 20 µM |  | vasoconstriction inhibitory action [3]: significant vasoconstriction inhibitory action |
|  | COC(=O)c1cccc(CCCN(CCCN)S(=O)(=O)c2cccc3cnccc23)c1 [Example 131, N-[(5-Isoquinolyl)sulfonyl]-N-[3-(3-methoxycarbonyl)phenylpropyl]-1,3-propylenediamine hydrochloride] |  | ≤ 20 µM | IC50 [2]: ≤ 40 µM |
|  | Cl.Oc1nccc2c(NC3CCNCC3)cccc12 [Example 115, 4-(1-Hydroxy-5-isoquinolyl)aminopiperidine hydrochloride] |  |  | intraocular pressure reducing activity [4]: significant intraocular pressure reducing activity |
| 1 to 10 µM | N[C@H]1CC[C@H](Nc2cccc3cnccc23)CC1 [Example 24, Trans-N-(5-isoquinolyl)-1,4-cyclohexanediamine hydrochloride] | 1 to 20 µM |  |  |
| 1 to 10 µM | N[C@H]1CC[C@@H](Nc2cccc3cnccc23)CC1 [Example 23, Cis-N-(5-Isoquinolyl)-1,4-cyclohexanediamine hydrochloride] | 1 to 20 µM |  |  |
|  | NCCCN(CCCc1cccc(C(=O)O)c1)S(=O)(=O)c1cccc2cnccc12 [Example 128, N-[(5-Isoquinolyl)sulfonyl]-N-[3-(3-carboxy)phenylpropyl]-1,3-propylenediamine hydrochloride] |  | ≤ 20 µM | IC50 [2]: ≤ 40 µM |
|  | COC(=O)c1ccc(CCCN(CCCN)S(=O)(=O)c2cccc3cnccc23)cc1 [Example 130, N-[(5-Isoquinolyl)sulfonyl]-N-[3-(4-methoxycarbonyl)phenylpropyl]-1,3-propylenediamine hydrochloride] |  | ≤ 20 µM |  |
| 1 to 10 µM | NCCCN(CCS(=O)(=O)c1ccccc1)S(=O)(=O)c1cccc2cnccc12 [Example 6, N-[(5-Isoquinolyl)sulfonyl]-N-[2-(phenylsulfonyl)ethyl]-1,3-propylenediamine hydrochloride] | 20 µM |  |  |
|  | 4-(4-Cyano-5-isoquinolyl)aminopiperidine hydrochloride [Example 143] |  |  | IC50 [1]: ≤ 40 µM |
|  | CC1CNCCN1S(=O)(=O)c1cccc2cnccc12 (stereo not drawn) [Example H-7, 1-(5-isoquinolinesulfonyl)-2-methylpiperazine, reference compound] |  |  | inhibition at 1 µM ([3]; Rattus norvegicus, read-out: Vasoconstriction inhibitory action (relaxation ratio) (%)): 22% |
| 10 to 40 µM | NCCCNc1cccc2cnccc12 [Example 16, N-(5-Isoquinolyl)-1,3-propylenediamine hydrochloride] | 20 to 40 µM |  |  |
| 10 to 40 µM | NCCCCNc1cccc2cnccc12 [Example 18, N-(5-Isoquinolyl)-1,4-butylenediamine hydrochloride] | 20 to 40 µM |  |  |
| 1 to 10 µM | NCCN(CCCc1ccccc1)S(=O)(=O)c1cccc2cnccc12 [Example 30, N-[(5-isoquinolyl)sulfonyl]-N-(3-phenylpropyl)ethylenediamine] | 20 to 40 µM |  |  |
| ≤ 40 µM | Fc1cncc2cccc(NC3CCNCC3)c12 [Example 104, 4-(4-Fluoro-5-isoquinolyl)aminopiperidine hydrochloride] | ≤ 40 µM | ≤ 20 µM |  |
| ≤ 40 µM | Cc1cnc(O)c2cccc(N[C@H]3CC[C@H](N)CC3)c12 [Example 160, Trans-N-(1-hydroxy-4-methyl-5-isoquinolyl)-1,4-cyclohexanediamine hydrochloride] | ≤ 40 µM | ≤ 20 µM |  |
|  | N#Cc1cncc2cccc(O[C@H]3CC[C@H](NCCO)CC3)c12 [Example 156, Trans-1-[(4-cyano-5-isoquinolyl)oxy]-4-[(2-hydroxyethyl)amino]cyclohexane hydrochloride] | ≤ 40 µM | ≤ 20 µM |  |
| ≤ 40 µM | C=Cc1cncc2cccc(NC3CCNCC3)c12.Cl [Example 112, 4-(4-Vinyl-5-isoquinolyl)aminopiperidine hydrochloride] | ≤ 40 µM | ≤ 20 µM | vasoconstriction inhibitory action [3]: significant vasoconstriction inhibitory action |
| 1 to 10 µM | NCCCN(CCCc1ccccc1)S(=O)(=O)c1cccc2c(O)nccc12 [Example 14, N-[(1-Hydroxy-5-isoquinolyl)sulfonyl]-N-(3-phenylpropyl)-1,3-propylenediamine hydrochloride] | 20 to 40 µM |  |  |
|  | CSc1cncc2cccc(NC3CCNCC3)c12.Cl [Example 105, 4-(4-Methylthio-5-isoquinolyl)aminopiperidine hydrochloride] | ≤ 40 µM |  | vasoconstriction inhibitory action [3]: significant vasoconstriction inhibitory action |
| 1 to 10 µM | NCCN(CCS(=O)(=O)c1ccccc1)S(=O)(=O)c1cccc2c(N)nccc12 [Example 9, N-[(1-Amino-5-isoquinolyl)sulfonyl]-N-[2-(phenylsulfonyl)ethyl]ethylenediamine hydrochloride] | 15 µM |  |  |
